Test results as given in PubChem BioAssay (NCI).
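Results reflect a 48-hour exposure of cells in 96-well plates to compound at five concentrations. TGI: total growth inhibition.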

Tests used:
Assay in all cases: NCI-60 cell line screen, 48 h
[1] = tested on: 786-0 renal
[2] = tested on: A498 renal
[3] = tested on: A549 NSCLC
[4] = tested on: ACHN renal
[5] = tested on: BT-549 breast
[6] = tested on: CAKI-1 renal
[7] = tested on: CCRF-CEM leukemia
[8] = tested on: COLO 205 colon
[9] = tested on: DU-145 prostate
[10] = tested on: EKVX NSCLC
[11] = tested on: HCC-2998 colon
[12] = tested on: HCT-116 colon
[13] = tested on: HCT-15 colon
[14] = tested on: HL-60(TB) leukemia
[15] = tested on: HOP-62 NSCLC
[16] = tested on: HOP-92 NSCLC
[17] = tested on: HS 578T breast
[18] = tested on: HT29 colon
[19] = tested on: IGROV1 ovarian
[20] = tested on: K-562 leukemia
[21] = tested on: KM12 colon
[22] = tested on: LOX IMVI melanoma
[23] = tested on: M14 melanoma
[24] = tested on: MALME-3M melanoma
[25] = tested on: MCF7 breast
[26] = tested on: MDA-MB-435
[27] = tested on: MDA-N
[28] = tested on: MOLT-4 leukemia
[29] = tested on: NCI-H226 lung
[30] = tested on: NCI-H23 lung
[31] = tested on: NCI-H460 lung
[32] = tested on: NCI-H522 lung
[33] = tested on: NCI/ADR-RES ovarian
[34] = tested on: OVCAR-3 ovarian
[35] = tested on: OVCAR-4 ovarian
[36] = tested on: OVCAR-5 ovarian
[37] = tested on: OVCAR-8 ovarian
[38] = tested on: PC-3 prostate
[39] = tested on: RPMI-8226 leukemia
[40] = tested on: RXF 393 renal
[41] = tested on: SF-268 CNS
[42] = tested on: SF-295 CNS
[43] = tested on: SF-539 CNS
[44] = tested on: SK-MEL-2 melanoma
[45] = tested on: SK-MEL-28 melanoma
[46] = tested on: SK-MEL-5 melanoma
[47] = tested on: SK-OV-3 ovarian
[48] = tested on: SN12C renal
[49] = tested on: SNB-19 CNS
[50] = tested on: SNB-75 CNS
[51] = tested on: SR leukemia
[52] = tested on: SW-620 colon
[53] = tested on: T-47D breast
[54] = tested on: UACC-257 melanoma
[55] = tested on: UACC-62 melanoma
[56] = tested on: UO-31 renal

In the case of `CCOc1cc(NC(C)=O)ccc1C(=O)NNS(=O)(=O)c1ccc(NC(C)=O)cc1`, the TGI [1] is reported as > 100 µM, the TGI [2] is reported as > 100 µM and the TGI [3] is reported as > 100 µM. For the same molecule, the TGI [4] was > 100 µM, the TGI [5] was > 100 µM and the TGI [6] was > 100 µM. For the same molecule, the TGI [7] was > 100 µM, the TGI [8] was 76.2 µM and the TGI [9] was > 100 µM. For the same molecule, the TGI [10] was > 100 µM, the TGI [11] was > 100 µM and the TGI [12] was > 100 µM. For the same molecule, the TGI [13] was > 100 µM, the TGI [14] was 78.8 µM and the TGI [15] was > 100 µM. The TGI [16] was > 100 µM, the TGI [17] was > 100 µM and the TGI [18] was > 100 µM. The TGI [19] was > 100 µM, the TGI [20] was > 100 µM and the TGI [21] was > 100 µM. For the same molecule, the TGI [22] was > 100 µM, the TGI [23] was > 100 µM and the TGI [24] was > 100 µM. The TGI [25] was > 100 µM, the TGI [26] was > 100 µM and the TGI [27] was 39.2 µM. The TGI [28] was > 100 µM, the TGI [29] was 89.5 µM and the TGI [30] was > 100 µM. For the same molecule, the TGI [31] was > 100 µM, the TGI [32] was > 100 µM and the TGI [33] was > 100 µM. The TGI [34] was > 100 µM, the TGI [35] was > 100 µM and the TGI [36] was > 100 µM. The TGI [37] was > 100 µM, the TGI [38] was > 100 µM and the TGI [39] was 86.4 µM. The TGI [40] was > 100 µM, the TGI [41] was > 100 µM and the TGI [42] was > 100 µM. The TGI [43] was > 100 µM, the TGI [44] was 95.2 µM and the TGI [45] was > 100 µM. For the same molecule, the TGI [46] was 69.3 µM, the TGI [47] was > 100 µM and the TGI [48] was > 100 µM. The TGI [49] was > 100 µM, the TGI [50] was > 100 µM and the TGI [51] was > 100 µM. For the same molecule, the TGI [52] was > 100 µM, the TGI [53] was > 100 µM and the TGI [54] was > 100 µM. The TGI [55] was > 100 µM and the TGI [56] was > 100 µM.
